Patent US6337087B1, “Aqueous pharmaceutical composition comprising an active ingredient which is highly insoluble in water” (Aziende Chimiche Riunite Angelini Francesco A.C.R.A.F. …, priority 1997, dated 2002)
Converted amounts (≈) assume the structure as drawn.

Assay: initial solubility of the active ingredient
Type: physicochemical
Conditions: active ingredient without liposomes, aqueous

solubility: 3 µg/mL (≈ 9.34 µM)
Compound: O=C(O)c1nn(Cc2ccc(Cl)cc2Cl)c2ccccc12 [lonidamine]
